Calls of active or inactive are those of the source. The calls are words filed in the database; no cut-off is given here.
Experiments:
Format in all cases: cell-based
[1] = molecular target: T1, Signal transducer and activator of transcription 6 (Homo sapiens) (UniProt P42226); test: Inhibition of IL4-stimulated SH2 domain of STAT6 phosphorylation at Tyr641 in human BEAS2B cells at 1 to 10 uM incubated for 2 to 48 hrs prior to IL-4 challenge measured after 1 hr by Western blotting analysis
T1 sequence (whole entry): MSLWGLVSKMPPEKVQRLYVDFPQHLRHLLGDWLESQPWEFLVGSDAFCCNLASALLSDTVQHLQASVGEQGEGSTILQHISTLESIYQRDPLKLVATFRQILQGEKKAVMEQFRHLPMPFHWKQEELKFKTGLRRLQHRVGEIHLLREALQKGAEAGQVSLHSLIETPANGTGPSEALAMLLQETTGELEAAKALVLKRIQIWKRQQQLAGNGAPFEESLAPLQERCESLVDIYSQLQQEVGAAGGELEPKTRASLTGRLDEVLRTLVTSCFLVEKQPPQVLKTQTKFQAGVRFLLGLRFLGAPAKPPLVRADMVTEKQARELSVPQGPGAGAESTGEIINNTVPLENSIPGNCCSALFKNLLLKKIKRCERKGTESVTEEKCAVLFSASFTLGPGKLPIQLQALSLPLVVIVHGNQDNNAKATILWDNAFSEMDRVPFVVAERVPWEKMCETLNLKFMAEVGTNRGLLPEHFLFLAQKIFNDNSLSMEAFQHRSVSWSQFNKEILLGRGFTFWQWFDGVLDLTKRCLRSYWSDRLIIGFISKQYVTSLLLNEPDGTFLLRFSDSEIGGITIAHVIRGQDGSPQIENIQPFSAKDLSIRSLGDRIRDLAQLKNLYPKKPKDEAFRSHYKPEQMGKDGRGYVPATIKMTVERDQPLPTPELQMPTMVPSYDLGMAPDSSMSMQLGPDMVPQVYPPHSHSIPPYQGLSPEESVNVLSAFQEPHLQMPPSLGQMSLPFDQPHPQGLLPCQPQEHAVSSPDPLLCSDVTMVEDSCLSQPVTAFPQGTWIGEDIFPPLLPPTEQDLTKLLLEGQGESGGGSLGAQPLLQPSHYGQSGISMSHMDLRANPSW

[2] = Cytotoxicity against human BEAS2B cells up to 10 uM after 72 hrs by MTS assay; conditions: beas-2b
[3] = molecular target: T1, Signal transducer and activator of transcription 6 (Homo sapiens); test: Inhibition of IL13-stimulated SH2 domain of STAT6 phosphorylation at Tyr641 in human BEAS2B cells at 1 to 10 uM incubated for 2 hrs prior to IL-13 challenge measured after 1 hr by Western blotting analysis
[4] = molecular target: T1, Signal transducer and activator of transcription 6 (Homo sapiens); test: Inhibition of IL4-stimulated SH2 domain of STAT6 phosphorylation at Tyr641 in human BEAS2B cells at 1 to 10 uM incubated for 2 hrs prior to IL-4 challenge measured after 1 hr by Western blotting analysis

inhibition [1]: Active
inhibition [3]: Active
inhibition [4]: Active
SMILES: CC(C)(C)C(=O)OCOP(=O)(OCOC(=O)C(C)(C)C)C(F)(F)c1ccc(/C=C/C(=O)N[C@H](C(=O)N2CCC[C@H]2C(=O)N(c2ccccc2)c2ccc(I)cc2)C(C)(C)C)cc1
Activity [2]: Non-toxic

Source: ChEMBL document CHEMBL3108719, “Synthesis and in Vitro Evaluation of a Peptidomimetic Inhibitor Targeting the Src Homology 2 (SH2) Domain of STAT6” (ACS Med Chem Lett, 2014)
